Data published in US12551479B2, “Acyl-protein thioesterase inhibitor for the treatment and/or prevention of Huntington's disease” (UNIVERSITÉ GRENOBLE ALPES, priority 2019, dated 2026).

What was measured:
Hdh^CAG140/+ mice [1] = assay: Open Field test; format: in vivo, mouse; conditions: 0.3 mg/kg/day subcutaneous infusion
Method: (§1) Mice littermates were grouped into mixed treatment groups. Males and females were 6 months of age at the beginning of the treatment. For each specific test, all experimental groups were tested on the same day, during the light phase and between Days 16 and 28 of treatment. Prior to testing, mice were acclimatized to the test room for a period of 30 minutes. Treatments were randomly assigned and behavioral tests were performed 12 days before the end of the delivery of the treatment. […] Mice were excluded from analysis if their performance was calculated as a significant outlier by the Grubb test. One mouse was excluded based on these criteria. Mouse weights were measured prior to the start of treatment and until the end of testing.
Spontaneous locomotion was measured as the total distance traveled and general anxiety as the number of entries into the internal area. The Open Field test was conducted in a opaque Plexiglas square chamber (50×50 cm) and the internal chamber was defined with a quadrangular shape of 12.50×12.50 cm. The mice were filmed for 60 minutes. The distance traveled and the number of entries into the internal chamber per 5-minute interval were measured using ViewPoint tracking software.

Hdh^CAG140/+ mice [2] = assay: Novelty-Suppressed Feeding test; format: in vivo, mouse; conditions: Hdh^CAG/+ mice, 0.3 mg/kg/day subcutaneous infusion
Method: as §1
The test was performed as in Pla et al., 2013. Animals were food-deprived during 24 hours to increase motivation to consume food. On the day of testing, mice were placed within the testing apparatus, which consisted of a plastic box (50 cm×30 cm×15 cm), the floor of which covered with wooden bedding. Mice were videorecorded and allowed to freely explore the area until they eat the food pellet or for a maximum of 10 minutes. The mice were considered to eat the pellet when they bite the pellet while sitting comfortably.

[3] = Pharmacokinetics after intraperitoneal injection, plasma and brain by LC-MS/MS; format: in vivo; conditions: mice, 2 mg/kg intraperitoneal
Method: The ability of the ML-348 molecule to freely cross the blood brain barrier is an additional argument towards the efficacy of the molecule in vivo in mice.
Plasma proteins were precipitated by adding 800 μL acetonitrile into 400 μL of sample. Brains were ground into 400 μL H2O before adding 800 μL acetonitrile. Samples were centrifuged to remove insoluble residues at 15.000 g for 5 minutes at 16° C. Supernatants were analyzed by LC-MS/MS. LC-MS/MS was assessed by high-performance liquid chromatography (UHPC) coupled with a triple quadrupole (Shimadzu LC-MS 8030). Analyses were performed from 3 mice for each time point.
Before investigating ML-348 in vivo, the inventors first evaluated the pharmacokinetics of the molecule. […] They then evaluated the efficacy of the molecule to increase brain palmitoylation level 30 minutes after injection. For this purpose, they performed an Acyl-Biotin-Exchange (ABE) assay to biotinylate palmitoylated proteins before their immunoprecipitation with streptavidin-coated beads (FIG. 4D).

Hdh^CAG140/+ mice [4] = assay: Horizontal Ladder test; format: in vivo, mouse; conditions: Hdh^CAG/+ mice, 0.3 mg/kg/day subcutaneous infusion; values similar to wild-type
Method: as §1
A horizontal ladder is used to assess forelimb and hindlimb placement and coordination. The horizontal ladder is composed of two clear Plexiglas walls (69.50×15 cm) containing metal rungs (0.2 cm diameter) irregularly spaced (between 0.5 and 2 cm apart). Mice were habituated to walk on a horizontal ladder during two consecutive days (3 trials per day). Then the mice were tested (3 trials) with a different pattern than the two days of habituation. Test trials were videorecorded, and the motor performance as well as the latency to complete the task were quantified. Data are expressed as the average of the 3 trials.

ERK phosphorylation = assay: Postsynaptic signaling: phosphoERK immunopositive striatal neurons after glycine/strychnine stimulation; format: cell-based, mouse; conditions: Hdh^CAG/+ neurons, 1 μM daily; glycine/strychnine 15 minutes
Method: For striatal StHdh cells, acute treatment was performed at 10 μM for 1 hour before and during the acquisition time. For neurons within the microchambers, treatments were started at DIV2 until DIV12 every day at 1 μM in each compartment of the microfluidic device.
They used ERK phosphorylation as the readout of the postsynaptic signaling. […] The inventors stimulated cortical neurons for 15 minutes with glycine/strychnine and quantified the percentage of striatal neurons immunopositive for phosphoERK (FIG. 3J).

## O=C(CN1CCN(C(=O)c2ccco2)CC1)Nc1cc(C(F)(F)F)ccc1Cl [ML-348]
Hdh^CAG140/+ mice [1]
  total distance traveled over 60 minutes (spontaneous locomotion): no effect
Hdh^CAG140/+ mice [1]; wild-type and Hdh^CAG/+ mice
  number of entries into the central area over 60 minutes: no significant effect
Hdh^CAG140/+ mice [2]
  latency to feeding in a new environment: restores the behavior of Hdh^CAG/+ mice to that of wild-type mice
[3]; 30, 60 and 180 minutes
  crossing of the blood brain barrier ([Brain]/[Plasma] values): effectively crosses the blood brain barrier
[3]; 60 minutes after injection
  degradation after injection (plasma and brain levels): rapidly degraded
Hdh^CAG140/+ mice [4]
  average error score: significant improvement
  average time to cross the horizontal ladder: significant improvement
ERK phosphorylation
  percentage of immunopositive phosphoERK cells in the postsynaptic space: restore postsynaptic signaling to values encountered in wild-type neurons
